Reference: patent US8609836B2, “4-aryl-2-anilino-pyrimidines” (Janssen Pharmaceutica NV, priority 2008, dated 2013)

Assays:
[1] = target: GSK3β (h) (Homo sapiens, UniProt P49841); assay: GSK-3β human kinase inhibition, SPA; assay type: biochemical; conditions: read-out: GSK3b pIC50 (converted)
How it was run: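 Scintillation proximity assay: GSK3β (1 μg/ml) with 1 μM biotinylated peptide, 1 μM ATP plus [γ-33P]ATP in Tris pH 7.4, MgCl2, DTT. 60 min at room temperature, stopped with EDTA and streptavidin PVT beads; phosphorylation read by Leadseeker imaging.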

[2] = target: CDK4/CyclinD1 (h) (Homo sapiens, UniProt P11802); assay: CDK4/CyclinD1 human kinase inhibition, SPA with GST-pRb substrate; assay type: biochemical; conditions: read-out: CDK4 pIC50 (converted)
How it was run: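 Human CDK4/CyclinD1 (2.5 μg/ml) was incubated with 40 μg/ml GST-pRb and 2 nM [γ-33P]ATP in 50 mM Hepes pH 7.5, 8 mM NaF, 20 mM MgCl2, 1 mM DTT for 60 min at room temperature. EDTA stop with glutathione SPA beads; phosphorylation read by scintillation counting.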

[3] = target: PLK1 T210D (h) (Homo sapiens, UniProt P53350, T210D); assay: PLK1 human kinase inhibition, SPA; assay type: biochemical; conditions: read-out: PLK1 pIC50 (converted)
How it was run: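 Radiometric SPA with PLK1 T210D (0.125 ng/ml) in 50 mM Hepes pH 8.0, 2 mM MnCl2, 1 mM DTT, 2 μM biotinylated peptide, 0.1 μM ATP plus 2 nM [γ-33P]ATP. 40 min at room temperature, EDTA stop. Phosphorylated substrate captured on streptavidin PVT beads, scintillation imaged.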

[4] = target: PLK2 (h) (Homo sapiens, UniProt Q9NYY3); assay: PLK2 human kinase inhibition, SPA; assay type: biochemical; conditions: read-out: PLK2 pIC50 (converted)
How it was run: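 SPA read on Leadseeker: PLK2 (30 μg/ml) with 2 μM biotinylated peptide, 0.1 μM ATP plus 2 nM [γ-33P]ATP in 50 mM Hepes pH 8.0, 2 mM MnCl2, 1 mM DTT. Reaction ran 20 min at room temperature, then EDTA stop and streptavidin PVT beads.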

[5] = target: PLK3 (h) (Homo sapiens, UniProt Q9H4B4); assay: PLK3 human kinase inhibition, SPA; assay type: biochemical; conditions: read-out: PLK3 pIC50 (converted)
How it was run: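 SPA: PLK3 (h) at 30 μg/ml with 2 μM biotinylated peptide, 0.1 μM ATP plus 2 nM [γ-33P]ATP in 50 mM Hepes pH 8.0, 2 mM MnCl2 and 1 mM DTT. Incubated 20 min at room temperature, then stopped with EDTA and streptavidin PVT beads. Scintillation imaged on Leadseeker.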

[6] = tested on: HCT-116; assay: Cellular proliferation assay (Alamar blue), HCT-116; assay type: cell-based; conditions: Homo sapiens, 10% FCS, 72 hours with compound, Alamar blue 4 h
How it was run: (§1)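 Cells seeded 24 h without compound, then exposed to compounds for 72 h in 10% FCS at 37 °C, 5% CO2. Viability read by Alamar blue (resazurin 9 μg/ml) fluorescence at 544/590 nm after 6 h (U87-MG) or 24 h (A2780, MDA-MB-231) or 4 h (HCT-116) dye incubation; effect expressed relative to control cells.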

[7] = tested on: H1299; assay: Cellular proliferation assay (Alamar blue), H1299; assay type: cell-based; conditions: Homo sapiens, NCI-H1299; 10% FCS; 72 hours with compound; Alamar blue 4 h
How it was run: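 This proliferation assay on NCI-H1299 cells used an initial 24-hour compound-free incubation after seeding, followed by 72 hours of compound treatment with 10% FCS serum at 37° C. and 5% (v/v) CO2. Viable cells were quantified by a 4 h Alamar blue incubation and fluorescent plate reading at 544 nm/590 nm, and effects were expressed relative to control cells.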

[8] = tested on: U87-MG; assay: Cellular proliferation assay (Alamar blue), U87-MG; assay type: cell-based; conditions: Homo sapiens, U-87 MG; 10% FCS; 72 hours with compound; Alamar blue 6 h; read-out: U87-MG (cellular proliferation assay, Table 4) (converted)
How it was run: as §1

[9] = tested on: A2780; assay: Cellular proliferation assay (Alamar blue), A2780; assay type: cell-based; conditions: Homo sapiens, 10% FCS, 72 hours with compound, Alamar blue 24 h, read-out: A2780 (cellular proliferation assay, Table 4) (converted)
How it was run: as §1

Sequence of GSK3β (h) (P49841 whole entry): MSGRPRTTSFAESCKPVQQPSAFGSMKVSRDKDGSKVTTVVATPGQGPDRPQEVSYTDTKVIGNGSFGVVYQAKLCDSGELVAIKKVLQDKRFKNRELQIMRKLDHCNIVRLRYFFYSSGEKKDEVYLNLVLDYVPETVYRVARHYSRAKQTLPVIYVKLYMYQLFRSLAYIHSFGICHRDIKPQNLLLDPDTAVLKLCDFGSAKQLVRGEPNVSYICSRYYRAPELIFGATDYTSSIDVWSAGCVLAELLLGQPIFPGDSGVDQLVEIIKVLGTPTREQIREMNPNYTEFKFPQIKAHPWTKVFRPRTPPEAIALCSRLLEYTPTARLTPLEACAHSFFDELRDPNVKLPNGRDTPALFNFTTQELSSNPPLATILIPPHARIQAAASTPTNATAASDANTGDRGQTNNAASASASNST
Sequence of PLK3 (h) (Q9H4B4 whole entry): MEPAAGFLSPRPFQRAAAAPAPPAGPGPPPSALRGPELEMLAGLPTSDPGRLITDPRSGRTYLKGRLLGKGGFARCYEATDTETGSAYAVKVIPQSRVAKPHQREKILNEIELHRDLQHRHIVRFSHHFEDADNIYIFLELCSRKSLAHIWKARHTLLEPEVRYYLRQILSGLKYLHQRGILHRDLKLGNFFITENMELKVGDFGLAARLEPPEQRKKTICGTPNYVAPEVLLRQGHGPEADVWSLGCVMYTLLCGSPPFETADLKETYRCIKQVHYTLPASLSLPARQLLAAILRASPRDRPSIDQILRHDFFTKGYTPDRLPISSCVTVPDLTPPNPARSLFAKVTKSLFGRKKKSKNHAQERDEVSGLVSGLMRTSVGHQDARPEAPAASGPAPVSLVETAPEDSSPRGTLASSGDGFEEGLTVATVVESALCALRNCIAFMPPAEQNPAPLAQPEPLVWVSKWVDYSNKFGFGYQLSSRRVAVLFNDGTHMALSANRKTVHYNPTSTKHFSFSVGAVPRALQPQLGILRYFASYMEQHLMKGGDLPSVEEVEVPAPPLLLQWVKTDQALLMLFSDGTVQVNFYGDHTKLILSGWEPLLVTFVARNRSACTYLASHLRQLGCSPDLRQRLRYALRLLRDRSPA
Sequence of PLK1 T210D (h) (P53350 whole entry T210D): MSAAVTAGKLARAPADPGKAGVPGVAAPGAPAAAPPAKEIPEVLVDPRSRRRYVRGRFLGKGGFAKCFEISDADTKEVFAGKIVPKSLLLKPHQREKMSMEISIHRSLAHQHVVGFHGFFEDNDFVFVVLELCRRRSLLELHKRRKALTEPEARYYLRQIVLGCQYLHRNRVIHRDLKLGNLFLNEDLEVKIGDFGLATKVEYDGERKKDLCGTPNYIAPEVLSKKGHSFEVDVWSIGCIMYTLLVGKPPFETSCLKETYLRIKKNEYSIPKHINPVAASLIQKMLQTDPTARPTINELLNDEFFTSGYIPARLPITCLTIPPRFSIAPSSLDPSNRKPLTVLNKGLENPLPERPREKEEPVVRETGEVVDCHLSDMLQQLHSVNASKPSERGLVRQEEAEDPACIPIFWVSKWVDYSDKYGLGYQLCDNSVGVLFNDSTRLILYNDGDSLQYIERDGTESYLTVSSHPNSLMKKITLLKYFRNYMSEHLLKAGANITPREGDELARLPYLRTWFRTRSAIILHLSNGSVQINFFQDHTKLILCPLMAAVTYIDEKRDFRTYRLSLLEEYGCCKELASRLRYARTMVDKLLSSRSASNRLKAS
Sequence of PLK2 (h) (Q9NYY3 whole entry): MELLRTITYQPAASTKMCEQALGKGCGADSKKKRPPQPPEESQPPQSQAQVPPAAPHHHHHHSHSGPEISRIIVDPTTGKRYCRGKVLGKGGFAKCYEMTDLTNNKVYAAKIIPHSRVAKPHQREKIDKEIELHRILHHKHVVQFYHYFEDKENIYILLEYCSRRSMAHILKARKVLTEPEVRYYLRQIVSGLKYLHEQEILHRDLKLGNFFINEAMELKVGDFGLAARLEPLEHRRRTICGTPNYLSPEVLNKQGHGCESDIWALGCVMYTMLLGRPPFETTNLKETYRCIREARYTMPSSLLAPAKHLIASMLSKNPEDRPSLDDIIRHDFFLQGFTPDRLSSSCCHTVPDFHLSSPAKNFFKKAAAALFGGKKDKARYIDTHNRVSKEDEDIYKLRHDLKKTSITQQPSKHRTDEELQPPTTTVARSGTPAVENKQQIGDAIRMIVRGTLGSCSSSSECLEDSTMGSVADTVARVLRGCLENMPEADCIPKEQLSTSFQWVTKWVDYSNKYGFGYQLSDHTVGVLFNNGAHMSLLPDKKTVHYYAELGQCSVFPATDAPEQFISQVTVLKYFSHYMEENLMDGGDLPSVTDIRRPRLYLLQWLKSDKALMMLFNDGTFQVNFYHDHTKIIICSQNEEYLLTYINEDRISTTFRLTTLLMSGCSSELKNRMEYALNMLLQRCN
Sequence of CDK4/CyclinD1 (h) (P11802 whole entry): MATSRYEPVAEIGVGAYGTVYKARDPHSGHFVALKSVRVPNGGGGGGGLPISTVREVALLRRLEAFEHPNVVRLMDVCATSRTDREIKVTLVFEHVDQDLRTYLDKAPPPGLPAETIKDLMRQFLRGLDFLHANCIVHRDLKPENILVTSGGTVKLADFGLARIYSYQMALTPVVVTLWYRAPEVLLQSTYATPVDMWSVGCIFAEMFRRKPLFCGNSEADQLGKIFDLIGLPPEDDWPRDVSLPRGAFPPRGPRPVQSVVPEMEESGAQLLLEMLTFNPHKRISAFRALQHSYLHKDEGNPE
Sequence of CDK4/CyclinD1 (h) (P24385 whole entry partner): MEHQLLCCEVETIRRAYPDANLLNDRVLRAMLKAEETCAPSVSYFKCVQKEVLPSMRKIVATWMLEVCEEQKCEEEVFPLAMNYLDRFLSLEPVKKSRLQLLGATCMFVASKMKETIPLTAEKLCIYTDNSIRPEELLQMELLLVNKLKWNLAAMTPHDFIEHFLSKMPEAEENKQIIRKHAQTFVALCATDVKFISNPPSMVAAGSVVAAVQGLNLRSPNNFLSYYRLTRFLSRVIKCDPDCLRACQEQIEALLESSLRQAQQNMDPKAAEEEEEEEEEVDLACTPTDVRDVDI

IC50 [1] [µM] | IC50 [2] [µM] | IC50 [3] [µM] | IC50 [4] [µM] | IC50 [5] [µM] | IC50 [6] [µM] | IC50 [7] [µM] | IC50 [8] [µM] | IC50 [9] [µM] | SMILES
> 10 | > 10 | > 10 | > 10 | > 10 | > 10 | > 10 | > 10 | > 10 | O=C1NCc2cccc(c2)-c2ccnc(n2)Nc2cc(ccc2Cl)CN2C[C@H](O)C[C@@H]12 [Compound 52]
> 10 | 7.41 | > 10 | > 10 | > 10 | > 10 | > 10 | > 10 | > 10 | O=C1NCc2cccc(c2)-c2ccnc(n2)Nc2ccc(cc2)CN2CCC[C@@H]12 [Compound 54]
> 10 | > 10 | > 10 | > 10 | > 10 | > 10 | > 10 | > 10 | > 10 | O=C1NCc2ccc(cc2)-c2ccnc(n2)Nc2ccc(N3CCOCC3)c(c2)CN2C[C@H](O)C[C@@H]12 [Compound 56]
> 10 | > 10 | > 10 | > 10 | > 1 | > 10 | > 10 | > 10 | > 10 | O=C1NCc2cccc(c2)-c2ccnc(n2)Nc2ccccc2CN2CCC[C@@H]12 [Compound 57]
> 10 | > 10 | > 10 | > 10 | > 10 | > 10 | > 10 | > 10 | > 10 | CC(C)(C)O[C@@H]1C[C@H]2C(=O)NCc3cccc(c3)-c3ccnc(n3)Nc3ccccc3CN2C1 [Compound 58]
1.91 | > 10 | > 10 | > 10 | 9.77 | 2.75 | > 10 | 6.92 | 5.89 | COc1cc2cc(c1)Nc1nccc(n1)-c1ccc(cc1)CN(C)CCNC(=O)C1CCN(CC1)C2 [Compound 62]
2.95 | 3.63 | > 10 | > 10 | > 10 | 9.12 | 8.13 | > 10 | > 10 | O=C1NCCOc2cccc(c2)-c2ccnc(n2)Nc2ccc(N3CCOCC3)c(c2)CN2CCC1CC2 [Compound 94]
3.72 | 1.29 | > 10 | > 10 | > 10 | > 10 | > 10 | > 10 | > 10 | O=C1NCc2cccc(c2)-c2ccnc(n2)Nc2ccc(N3CCOCC3)c(c2)CN2CCC1CC2 [Compound 95]
0.0759 | 0.2 | > 10 | > 10 | > 10 | 0.724 | 2.95 | 0.603 | 3.02 | C[C@@H]1NCCc2cccc(c2)-c2ccnc(n2)Nc2ccc(N3CCOCC3)c(c2)CNC1=O [Compound 100]
0.182 | 2.57 | > 10 | > 10 | > 10 | 2.69 | 6.61 | 5.01 | 4.68 | C[C@@H]1NCc2cccc(c2)-c2ccnc(n2)Nc2ccc(N3CCOCC3)c(c2)CNC1=O [Compound 101]
0.24 | 8.13 | > 10 | > 10 | > 10 | 1.29 | 1.15 | 3.09 | 6.46 | O=C1CN2CCN(CC2)Cc2cc(ccc2N2CCOCC2)Nc2nccc(n2)-c2cccc(c2)OCCN1 [Compound 102]
6.31 | > 10 | > 10 | > 10 | > 10 | 4.37 | > 10 | 8.91 | > 10 | COc1cc2cc(c1)Nc1nccc(n1)-c1ccc(OC)c(c1)CN(C)CCNC(=O)[C@H](CO)NC2 [Compound 107]

The next lines start with the compound.

SMILES | IC50 [1] [µM] | IC50 [2] [µM] | IC50 [3] [µM] | IC50 [4] [µM] | IC50 [5] [µM] | IC50 [6] [µM] | IC50 [7] [µM] | IC50 [8] [µM] | IC50 [9] [µM]
O=C1NCc2ccc(cc2)-c2ccnc(n2)Nc2ccc(N3CCOCC3)c(c2)CN2CCC[C@@H]12 [Compound 49] | > 10 | > 10 | > 10 | > 10 | > 10 | > 10 | > 10 | 1.74 | 4.07
O=C1NCc2cccc(c2)-c2ccnc(n2)Nc2cc(ccc2Cl)CN2CCC[C@@H]12 [Compound 51] | > 10 | > 10 | > 10 | > 10 | > 10 | > 10 | > 10 | > 10 | > 10
O=C1NCc2cccc(c2)-c2ccnc(n2)Nc2ccc(cc2)CN2C[C@H](O)C[C@@H]12 [Compound 55] | > 10 | > 10 | > 10 | > 10 | > 10 | > 10 | > 10 | > 10 | > 10
CC(C)Nc1cc2cc(c1)Nc1nccc(n1)-c1ccc(cc1)CN(C)CCCNC(=O)C1CCN(CC1)C2 [Compound 65] | 3.24 | > 10 | > 10 | > 10 | > 10 | > 10 | > 10 | 7.24 | > 10
COc1cc2cc(c1)Nc1nccc(n1)-c1ccc(cc1)CN(C)CCCNC(=O)C1CCN(CC1)C2 [Compound 66] | 1.07 | > 10 | > 10 | > 3.02 | > 10 | 1.02 | > 10 | 2.88 | 6.31
COc1cc2cc(c1)Nc1nccc(n1)-c1ccc(OC)c(c1)CN(C)CCNC(=O)C1CCN(CC1)C2 [Compound 67] | 3.09 | > 10 | > 10 | > 3.02 | > 10 | > 10 | > 10 | > 10 | > 10
COc1cc2cc(c1)Nc1nccc(n1)-c1ccc(OC)c(c1)CN(C)CCCNC(=O)C1CCN(CC1)C2 [Compound 73] | > 10 | > 10 | > 10 | > 10 | > 10 | 3.09 | > 10 | 5.13 | > 10
COc1ccc2cc1CN(C)CCNC(=O)C1CCN(CC1)Cc1cc(NCCc3ccccc3)cc(c1)Nc1nccc-2n1 [Compound 74] | > 10 | > 10 | > 10 | > 10 | > 10 | 4.68 | > 10 | 3.98 | 3.02
COc1ccc2cc1CN(C)CCNC(=O)[C@H](CO)NCc1cc(cc(N3CCOCC3)c1)Nc1nccc-2n1 [Compound 105] | > 10 | > 10 | > 10 | > 3.02 | > 10 | > 10 | > 10 | > 10 | > 10
COc1cc2cc(c1)Nc1nccc(n1)-c1ccc(cc1)CN(C)CCNC(=O)[C@H](CO)NC2 [Compound 109] | 4.79 | > 10 | > 10 | > 10 | > 10 | 2.69 | > 10 | 5.62 | > 10
